Test results: patent US20230065745A1, “PIPERIDINE-2,6-DIONE DERIVATIVES WHICH BIND TO CEREBLON, AND METHODS OF USE THEREOF” (Captor Therapeutics S.A., priority 2019, published 2023)

Experiments:
[1] = target: CRBN-DDB1 protein complex (Homo sapiens, UniProt Q96SW2); assay: Fluorescence Polarization (FP) assay, displacement of Cy5-labelled thalidomide; settings: 25 nM CRBN-DDB1, 5 nM Cy5-labelled thalidomide, read-out: CRBN binding Ki
Outline: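 CRBN-DDB1 mixed with Cy5-thalidomide tracer and test compound, then incubated 60 min at room temperature (20-25 °C) before fluorescence polarization read-out. Ki derived from tracer displacement across a range of compound concentrations.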

IKZF1 = IKZF1 degradation assay, H929 cell line (Western blot densitometry); type: cell-based; settings: for % of IKZF1 protein reduction, based on densitometry values: 24 h
Outline: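 H929 cells were treated across a concentration range for 24 h under 5% CO2, then lysed in RIPA buffer. BCA-normalised protein was resolved by gel, immunoblotted for IKZF1, and quantified by densitometry to give protein levels.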

IKZF3 = IKZF3 degradation assay, H929 cell line (Western blot densitometry); type: cell-based; settings: 24 h
Method: (§1) Cells were seeded on 6- or 12-well plates, and the compounds to be tested were added at the desired concentration range. […] After 24 h incubation (3TC, 5% CO2), cells were harvested, washed and cell lysates were prepared using RIPA lysis buffer. The amount of protein was determined via BCA assay, and the appropriate quantity was then loaded on the precast gel for the protein separation. After primary and secondary Ab staining, the membranes were washed and signals developed. The densitometry analysis was implemented to obtain the numeric values used later in the protein level evaluation process.
(§2) The treatment with all compounds was carried out for 24 h.
(§3) Densitometry values are normalized to the loading control ((3-ACTIN) and presented as % of DMSO control, using the following labels: […]

CK1α = CK1α degradation assay, Kelly cell line (Western blot densitometry); type: cell-based; settings: 24 h
Method: as §1, with “6-well” for “6- or 12-well”, “(37° C.,” for “(3TC,”, “were” for “were harvested,”
as §2, §3

Sequence of CRBN-DDB1 protein complex (Q96SW2 whole entry): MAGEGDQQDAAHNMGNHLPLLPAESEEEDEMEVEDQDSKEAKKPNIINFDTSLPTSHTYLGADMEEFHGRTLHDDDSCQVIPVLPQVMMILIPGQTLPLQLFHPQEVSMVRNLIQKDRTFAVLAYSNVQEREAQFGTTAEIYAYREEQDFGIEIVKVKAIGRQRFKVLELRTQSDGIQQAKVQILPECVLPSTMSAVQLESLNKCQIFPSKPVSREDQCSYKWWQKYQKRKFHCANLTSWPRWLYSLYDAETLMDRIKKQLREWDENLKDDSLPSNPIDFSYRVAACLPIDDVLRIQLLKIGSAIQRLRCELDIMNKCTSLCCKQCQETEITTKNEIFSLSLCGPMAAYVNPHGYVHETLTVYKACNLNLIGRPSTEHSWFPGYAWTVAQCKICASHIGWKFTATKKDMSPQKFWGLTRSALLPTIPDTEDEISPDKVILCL
Sequence of CRBN-DDB1 protein complex (Q16531 whole entry partner): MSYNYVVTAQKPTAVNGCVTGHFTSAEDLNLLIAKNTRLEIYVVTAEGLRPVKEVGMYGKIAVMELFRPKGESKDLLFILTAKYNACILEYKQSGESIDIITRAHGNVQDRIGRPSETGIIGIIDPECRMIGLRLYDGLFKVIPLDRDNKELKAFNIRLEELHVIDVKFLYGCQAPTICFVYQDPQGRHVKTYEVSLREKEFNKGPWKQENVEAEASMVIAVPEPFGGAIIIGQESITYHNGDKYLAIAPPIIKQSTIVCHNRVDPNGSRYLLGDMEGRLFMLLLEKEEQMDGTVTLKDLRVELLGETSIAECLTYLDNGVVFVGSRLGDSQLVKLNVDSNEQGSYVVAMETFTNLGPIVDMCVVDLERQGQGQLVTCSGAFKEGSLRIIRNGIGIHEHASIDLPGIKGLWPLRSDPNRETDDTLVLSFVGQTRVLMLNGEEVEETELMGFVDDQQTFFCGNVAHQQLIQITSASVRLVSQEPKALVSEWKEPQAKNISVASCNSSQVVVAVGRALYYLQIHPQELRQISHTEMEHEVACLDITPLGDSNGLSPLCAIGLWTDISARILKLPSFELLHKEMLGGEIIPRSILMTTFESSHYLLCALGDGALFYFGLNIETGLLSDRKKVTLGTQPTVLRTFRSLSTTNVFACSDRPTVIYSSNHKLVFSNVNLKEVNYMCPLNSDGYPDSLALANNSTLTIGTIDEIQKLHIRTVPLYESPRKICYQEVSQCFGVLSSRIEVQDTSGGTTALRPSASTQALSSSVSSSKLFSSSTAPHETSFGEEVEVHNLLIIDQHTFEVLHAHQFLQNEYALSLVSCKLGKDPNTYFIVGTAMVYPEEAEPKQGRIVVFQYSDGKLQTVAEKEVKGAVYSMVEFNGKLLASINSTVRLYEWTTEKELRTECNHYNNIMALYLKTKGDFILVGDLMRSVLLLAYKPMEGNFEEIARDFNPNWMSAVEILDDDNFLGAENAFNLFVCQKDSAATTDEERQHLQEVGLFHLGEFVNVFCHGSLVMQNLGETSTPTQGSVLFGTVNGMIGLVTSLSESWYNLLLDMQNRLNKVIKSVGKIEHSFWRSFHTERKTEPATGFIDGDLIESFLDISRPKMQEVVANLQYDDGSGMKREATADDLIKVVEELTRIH

SMILES | Ki [1] | % of IKZF1 protein reduction, based on densitometry values (IKZF1; 1 μM) | % of IKZF1 protein reduction, based on densitometry values (IKZF1; 10 μM) | % of IKZF1 protein reduction, IKZF 1 (24 H, 20 μM) (IKZF1) | % of IKZF3 protein reduction, based on densitometry values (IKZF3; 1 μM) | % of IKZF3 protein reduction, based on densitometry values (IKZF3; 10 μM) | % of CK1α protein reduction, based on densitometry values (CK1α; 20 μM) | % of CK1α protein reduction, based on densitometry values (CK1α; 1 μM) | % of CK1α protein reduction, based on densitometry values (CK1α; 10 μM) | CK1α degradation (in words) (CK1α)
COc1ccsc1C(=O)NC1CCC(=O)NC1=O (stereo not shown) [Compound 108, N-(2,6-dioxopiperidin-3-yl)-3-methoxythiophene-2-carboxamide] | < 5 µM | ≤25% (≤25% for 0-25% of IKZF1 protein reduction) | ≤25% (≤25% for 0-25% of IKZF1 protein reduction) | ≤25% (≤25% for 0-25% of IKZF1 protein reduction) | ≤25% (≤25% for 0-25% of IKZF3 protein reduction) | ≤25% (≤25% for 0-25% of IKZF3 protein reduction) | >25% (>25% for 26-74% of CK1α protein reduction) |  |  | 
Nc1cccc2c1C(=O)N(C1CCC(=O)NC1=O)C2=O (stereo not shown) [Pomalidomide, pomalidomide, reference compound] |  | ≥75% (≥75% for 75-100% of IKZF1 protein reduction) | ≥75% (≥75% for 75-100% of IKZF1 protein reduction) | ≥75% (≥75% for 75-100% of IKZF1 protein reduction) | ≥75% (≥75% for 75-100% of IKZF3 protein reduction) | ≥75% (≥75% for 75-100% of IKZF3 protein reduction) | >25% (>25% for 26-74% of CK1α protein reduction) | >25% (>25% for 26-74% of CK1α protein reduction) | >25% (>25% for 26-74% of CK1α protein reduction) | to a lesser degree
